Assays:
[1] = molecular target: T1, Indoleamine 2,3-dioxygenase 1 (Homo sapiens, UniProt P14902); test: Inhibition of IDO in human HeLa cells after 24 hrs by spectrophotometry; format: cell-based
[2] = molecular target: T1, Indoleamine 2,3-dioxygenase 1; test: Inhibition of human recombinant IDO expressed in Escherichia coli using N-formylkynurenine as substrate incubated for 1 hr prior to NaOH addition measured after 4 hrs by spectrophotometry

T1 sequence (P14902 whole entry): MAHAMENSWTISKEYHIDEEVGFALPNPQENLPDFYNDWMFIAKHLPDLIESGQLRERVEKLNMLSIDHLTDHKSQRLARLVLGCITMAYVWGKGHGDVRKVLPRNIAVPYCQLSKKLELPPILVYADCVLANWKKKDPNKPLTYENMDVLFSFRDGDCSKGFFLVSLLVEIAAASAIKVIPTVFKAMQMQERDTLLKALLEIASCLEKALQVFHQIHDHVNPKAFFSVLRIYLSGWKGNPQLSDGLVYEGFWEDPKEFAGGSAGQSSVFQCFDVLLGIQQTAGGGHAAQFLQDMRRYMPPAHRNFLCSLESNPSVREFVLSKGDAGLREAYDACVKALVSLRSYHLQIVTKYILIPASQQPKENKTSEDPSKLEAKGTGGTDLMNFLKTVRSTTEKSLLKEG

Row | SMILES | EC50 [1] [nM] | IC50 [2] [nM]
1 | CC(=O)Nc1ccc(S(=O)(=O)NNc2cccc(C)c2)cc1 | 241 | 49
2 | O=S(=O)(CCc1ccccc1)NNc1ccccc1 | > 10000 | 167
3 | Cc1cccc(NNS(=O)(=O)c2ccc(C(=O)NCC(=O)O)cc2)c1 | 271 | 80
4 | Cc1cccc(NNS(=O)(=O)c2ccc(S(C)(=O)=O)cc2)c1 | 7850 | 43
5 | Cc1cccc(NNS(=O)(=O)c2ccc(C#N)cc2)c1 | 3400 | 59
6 | Cc1cccc(NNS(=O)(=O)c2ccc(Oc3ccc(C(F)(F)F)cn3)cc2)c1 | 296 | 59
7 | CC(=O)Nc1ccc(S(=O)(=O)NNc2ccccc2)cc1 | > 10000 | 71
8 | CC(=O)Nc1ccc(S(=O)(=O)NNc2ccc(C)cc2)cc1 | 1170 | 51
9 | COc1ccc(NNS(=O)(=O)c2ccc(NC(C)=O)cc2)cc1 | > 10000 | 254
10 | CC(=O)Nc1ccc(S(=O)(=O)NNc2ccc(C#N)cc2)cc1 | 1390 | 5670
11 | CC(=O)Nc1ccc(S(=O)(=O)NNc2ccc(S(N)(=O)=O)cc2)cc1 | 3120 | 2480
12 | CC(=O)Nc1ccc(S(=O)(=O)NNc2ccc(C(F)(F)F)cc2)cc1 | 181 | 1610
13 | CC(=O)Nc1ccc(S(=O)(=O)NNc2ccc(F)cc2)cc1 | 609 | 79
14 | CC(=O)Nc1ccc(S(=O)(=O)NNc2ccc(Cl)cc2)cc1 | 142 | 155
15 | CC(=O)Nc1ccc(S(=O)(=O)NNc2ccc(Br)cc2)cc1 | 85 | 130
16 | CC(=O)Nc1ccc(S(=O)(=O)NNc2cccc(F)c2)cc1 | > 10000 | 122
17 | CC(=O)Nc1ccc(S(=O)(=O)NNc2cccc(Br)c2)cc1 | 7560 | 255
18 | CC(=O)Nc1ccc(S(=O)(=O)NNc2ccc(F)c(Br)c2)cc1 | 2490 | 128

Row | SMILES | EC50 [1] [nM] | IC50 [2] [nM]
19 | CC(=O)Nc1ccc(S(=O)(=O)NNc2ccc(F)c(Cl)c2)cc1 | 2590 | 110
20 | CC(=O)Nc1ccc(S(=O)(=O)NNc2ccc(Br)c(F)c2)cc1 | 187 | 205
21 | CC(=O)Nc1ccc(S(=O)(=O)NNc2ccc(Br)c(C)c2)cc1 | 130 | 58
22 | CC(=O)Nc1ccc(S(=O)(=O)NNc2ccc(Cl)c(F)c2)cc1 | 84 | 194
23 | CC(=O)Nc1ccc(S(=O)(=O)NNc2cc(F)cc(F)c2)cc1 | 2230 | 1750
24 | CC(=O)Nc1ccc(S(=O)(=O)NNc2ccc(F)cc2F)cc1 | > 10000 | 608
25 | CC(=O)Nc1ccc(S(=O)(=O)NNc2ccc(Cl)c(Cl)c2)cc1 | 350 | 247
26 | CC(=O)Nc1ccc(S(=O)(=O)NNc2cc(Cl)cc(Cl)c2)cc1 | 508 | 352
27 | O=S(=O)(NNc1ccc(Br)cc1)c1ccccc1 | 128 | 172
28 | O=S(=O)(NNc1ccc(Br)cc1)c1ccc(Br)cc1 | 374 | 85
29 | COc1ccc(S(=O)(=O)NNc2ccc(Br)cc2)cc1 | 640 | 1430
30 | N#Cc1ccc(S(=O)(=O)NNc2ccc(Br)cc2)cc1 | 134 | 176
31 | COC(=O)CCc1ccc(S(=O)(=O)NNc2ccc(Br)cc2)cc1 | 465 | 121
32 | CCCC(=O)Nc1ccc(S(=O)(=O)NNc2ccc(Br)cc2)cc1 | 187 | 132
33 | O=C(O)CCc1ccc(S(=O)(=O)NNc2ccc(Br)cc2)cc1 | 183 | 141
34 | O=C(O)COc1ccc(S(=O)(=O)NNc2ccc(Br)cc2)cc1 | 152 | 125
35 | O=C(O)c1ccc(S(=O)(=O)NNc2ccc(Br)cc2)cc1 | 172 | 61
36 | CC(=O)Nc1ccc(S(=O)(=O)NN(C)c2ccc(Br)cc2)cc1 |  | 4050
